Values of other authors as cited in patent publication US20070203026A1, “Methods for controlling bermudagrass, bermudagrass hybrids and other weedy monocot and dicot species” (TurfEcosystems, LLC, priority 2006, published 2007).

How the values were obtained:
[1] = tested on: tall fescue; conditions: saturated soil paste extract data
[2] = tested on: seashore paspalum; conditions: ocean level chlorides
[3] = tested on: bermudagrass; conditions: saturated soil paste extract data
[4] = tested on: crested wheatgrass; conditions: saturated soil paste extract data
[5] = tested on: perennial ryegrass; conditions: saturated soil paste extract data
[6] = tested on: fairway crested wheatgrass; conditions: saturated soil paste extract data

Cl [chloride]
maximum soil chloride concentration threshold [1]: about 1400 ppm
chlorides withstood (salinity tolerance) [2]: ~19,000 ppm
maximum soil chloride concentration threshold [3]: about 2450 ppm
maximum soil chloride concentration threshold [4]: about 1050 ppm
maximum soil chloride concentration threshold [5]: about 1025 ppm
maximum soil chloride concentration threshold [6]: about 2625 ppm
